We go through ten compounds from patent publication US12435038B2 (KUNMING SINOWAY NATURAL PHARMACEUTICALS CO., LTD., priority 2019, dated 2025).

For data set [1] the following is noted: cited from earlier work.
A short description of data set [2]: Powder properties of amlodipine mesylate monohydrate crystals (particle size distribution, carr index, angle of repose, bulk density). It counts as physicochemical. The settings on record: API crystals. The text has this:
The Carr index and angle of repose are indications of the flowability of a powdery material. To a certain extent, the Carr index is an indication of the compressibility of a powdery material. Carr index=(tap density-bulk density)/tap density*100%.
The angle of repose (α) refers to the maximum angle formed between the free inclined plane and the horizontal plane in a powder piled layer. The smaller the angle of repose (α) is, the better the flowability is. It is generally believed that the powder can flow freely if the a is less than 30°, and the flowability of the power is acceptable if the a is between 30° and 40°, while the power may have poor flowability if the a is greater than 40°.
The particle size of crystals can be measured by a Malvern Lazer Particle Analyzer which is a dry method. The particle size is related to the fluidity of a powder, and generally the larger the particle size is and the more concentrated the particle distribution is, the better the fluidity is. During the crystallization process, an average particle size (D50) of less than 15 μm may lead to difficulty in filtration and drying and easy to carry and absorb more impurities. Furthermore, the uniformity of particle size distribution can also have an impact on the properties of APIs.
(§1) Determination of other parameters of API or tablets of amlodipine mesylate monohydrate regarding quality such as water content, angle of repose, carr index, particle size, bulk density, and the like, is conduct with conventional methods well known to those skilled in the art.

The nature of data set [3]: Accelerated test of the API (sealed in aluminum-plastic composite film bags, 40° C., 75% RH). The class given is physicochemical. The note with it: mesylate monohydrate.
Text: as §1

With amlodipine mesylate monohydrate, in data set [1], the “water solubility” value was “easily soluble in water”. The “solubility relative to that of amlodipine besylate” value in data set [1] (in water) is listed as “more than 10 time”.
Regarding “amlodipine mesylate monohydrate [Example 2]”, in data set [2], the Bulk density stood at 0.33 g/mL; the Carr index worked out at 23%; the angle of repose came to 31 °; the “fluidity (words, from carr index and angle of repose)” value is reported as “good fluidity”. In data set [2], the “particle size distribution D10” value worked out at 34.8 μm, the “particle size distribution D50” value is listed as 72.1 μm and the “particle size distribution D90” value was determined as 126 μm. In addition, in data set [3] (0 month), the Average particle size is 72.1 μm, the Bulk density was determined as 0.33 g/mL, the Carr index is 23% and the Character entry is given as “White solid”. In data set [3] (0 month), this compound had a Content of 99.95%, a Related substance of 0.06% and a Water content of 3.51%. Further, in data set [3] (3 months), the Average particle size is on record as 71.8 μm, the Bulk density came out at 0.32 g/mL, the Carr index is recorded as 24% and the Character entry was “White solid”. In data set [3] (3 months), this compound displayed a Content of 99.81%, a Related substance of 0.07% and a Water content of 3.52%. Besides, in data set [3] (6 months), the Average particle size is listed as 72.4 μm, the Bulk density was determined as 0.32 g/mL, the Carr index came to 24% and the Character result was “White solid”. In data set [3] (6 months), the Content came out at 99.73%, the Related substance was 0.08% and the Water content was 3.49%.
On to “amlodipine mesylate monohydrate [Comparative Example 2, reference compound]”, for which, in data set [2], the Bulk density was 0.26 g/mL; the Carr index stood at 42%; the angle of repose was found to be 45 °; the “fluidity (words, from carr index and angle of repose)” value is reported as “poor fluidity”. In addition, in data set [2], the “particle size distribution D10” value is 1.62 μm, the “particle size distribution D50” value is recorded as 6.22 μm and the “particle size distribution D90” value came to 14.1 μm. Moreover, in data set [3] (0 month), the Average particle size was 6.22 μm, the Bulk density worked out at 0.26 g/mL, the Carr index is given as 42% and the Character result is reported as “White like”. In data set [3] (0 month), this compound returned a Content of 99.82%, a Related substance of 0.11% and a Water content of 3.57%. Besides, in data set [3] (3 months), the Average particle size was determined as 5.89 μm, the Bulk density turned out to be 0.27 g/mL, the Carr index turned out to be 41% and the Character result is given as “Light yellow”. Moreover, in data set [3] (3 months), the Content is recorded as 99.71%, the Related substance is 0.18% and the Water content came out at 3.52%. Further, in data set [3] (6 months), the Average particle size was 6.74 μm, the Bulk density is given as 0.25 g/mL, the Carr index is 44% and the Character result is recorded as “Yellow solid”. In data set [3] (6 months), this compound came in with a Content of 99.62%, a Related substance of 0.26% and a Water content of 3.53%.
In the case of `CCOC(=O)C1=C(COCCN)NC(C)=C(C(=O)OC)C1c1ccccc1Cl` (stereo not shown) [Amlodipine free base, Amlodipine], the “water solubility” value in data set [1] is “poor water solubility”.
Turning to “amlodipine mesylate monohydrate [Experimental Example 3]”, in data set [2], the “particle size distribution D10” value is 34 μm, the “particle size distribution D50” value is recorded as 69 μm and the “particle size distribution D90” value was found to be 120 μm.
With “amlodipine mesylate monohydrate [Comparative Example 1, reference compound]”, in data set [2], the Bulk density was found to be 0.22 g/mL; the Carr index is reported as 41%; the angle of repose is 46 °; the “fluidity (words, from carr index and angle of repose)” value is “poor fluidity”. In data set [2], the “particle size distribution D10” value amounted to 1.73 μm, the “particle size distribution D50” value is recorded as 6.70 μm and the “particle size distribution D90” value worked out at 16.4 μm. Moreover, in data set [3] (0 month), the Average particle size was 6.70 μm, the Bulk density is 0.22 g/mL, the Carr index stood at 41% and the Character result is “White like”. Moreover, in data set [3] (0 month), the Content was 99.89%, the Related substance amounted to 0.12% and the Water content was found to be 3.49%. In data set [3] (3 months), the Average particle size was found to be 5.96 μm, the Bulk density is 0.25 g/mL, the Carr index was found to be 42% and the Content was found to be 99.81%. In data set [3] (3 months), the Related substance worked out at 0.18% and the Water content stood at 3.48%. Moreover, in data set [3] (6 months), the Average particle size is on record as 6.93 μm, the Bulk density was 0.26 g/mL, the Carr index was determined as 43% and the Character entry is recorded as “Yellow”. For the same compound, in data set [3] (6 months), the Content is 99.71%, the Related substance was determined as 0.23% and the Water content is on record as 3.51%.
On to “amlodipine mesylate monohydrate [Experimental Example 1]”, for which, in data set [2], the “particle size distribution D10” value amounted to 43 μm, the “particle size distribution D50” value is 92 μm and the “particle size distribution D90” value was 151 μm.
For “amlodipine mesylate monohydrate [Example 1]”, in data set [2], the Bulk density turned out to be 0.32 g/mL; the Carr index is 23%; the angle of repose was 29 °; the “fluidity (words, from carr index and angle of repose)” value is given as “good fluidity”. Moreover, in data set [2], the “particle size distribution D10” value was 33.9 μm, the “particle size distribution D50” value was determined as 70.2 μm and the “particle size distribution D90” value is listed as 121 μm. Besides, in data set [3] (0 month), the Average particle size is reported as 70.2 μm, the Bulk density is 0.32 g/mL, the Carr index was determined as 23% and the Character entry is reported as “White solid”. In data set [3] (0 month), this compound showed a Content of 99.92%, a Related substance of 0.07% and a Water content of 3.51%. In addition, in data set [3] (3 months), the Average particle size was 70.6 μm, the Bulk density stood at 0.31 g/mL, the Carr index came to 23% and the Character entry was “White solid”. In data set [3] (3 months), this compound returned a Content of 99.78%, a Related substance of 0.07% and a Water content of 3.49%. In data set [3] (6 months), the Average particle size was found to be 69.5 μm, the Bulk density amounted to 0.33 g/mL, the Carr index amounted to 24% and the Character result is reported as “White solid”. Further, in data set [3] (6 months), the Content was 99.71%, the Related substance was determined as 0.08% and the Water content was found to be 3.50%.
Regarding “amlodipine mesylate monohydrate [Example 3]”, in data set [2], the Bulk density is 0.30 g/mL; the Carr index came to 24%; the angle of repose came to 33 °; the “fluidity (words, from carr index and angle of repose)” value is on record as “good fluidity”. In addition, in data set [2], the “particle size distribution D10” value turned out to be 32.9 μm, the “particle size distribution D50” value turned out to be 70.1 μm and the “particle size distribution D90” value was 124 μm. Besides, in data set [3] (0 month), the Average particle size is on record as 70.1 μm, the Bulk density came out at 0.30 g/mL, the Carr index is 24% and the Character result is recorded as “White solid”. In data set [3] (0 month), this compound showed a Content of 99.93%, a Related substance of 0.07% and a Water content of 3.50%. Besides, in data set [3] (3 months), the Average particle size turned out to be 69.5 μm, the Bulk density was found to be 0.31 g/mL, the Carr index stood at 23% and the Character result is given as “White solid”. In data set [3] (3 months), the Content is 99.82%, the Related substance was 0.08% and the Water content is 3.48%. In data set [3] (6 months), the Average particle size came out at 71.4 μm, the Bulk density was found to be 0.32 g/mL, the Carr index stood at 25% and the Character result was “White solid”. In data set [3] (6 months), this compound returned a Content of 99.71%, a Related substance of 0.10% and a Water content of 3.49%.
For “amlodipine mesylate monohydrate [Experimental Example 2]”, in data set [2], the “particle size distribution D10” value was 32 μm, the “particle size distribution D50” value came to 68 μm and the “particle size distribution D90” value is on record as 117 μm.
